Measured values from US8188064B2, “Vitamin D analogs for obesity prevention and treatment” (Wisconsin Alumni Research Foundation, priority 2003, dated 2012).
Entries after “also recorded” stand apart in the source; their conditions may differ.

Experiments:
[1] = test system: SCD-1 mRNA; test: Inhibition of SCD-1 mRNA induction in 3T3-L1 cells (RT-PCR); assay type: cell-based, murine; details: for inhibition of SCD-1 mRNA induction: result in words, MDI-treated 3T3-L1 cells; for inhibition of SCD1 mRNA induction: tested at 1×10^−8.5 M
Excerpt: Chomczynski, P. et al., Anal. […] NO: 4)).

[2] = molecular target: T1, full-length recombinant rat vitamin D receptor (Rattus norvegicus, UniProt P13053); test: Vitamin D receptor binding (competition with 3H-1,25(OH)2D3); details: result in words, competition for tritiated hormone binding
T1 construct: Full-length recombinant rat receptor was expressed in E. coli; histidine tag (C); made in house; host or cells: E. coli BL21(DE3) Codon Plus RIL
T1 sequence (P13053 1-423): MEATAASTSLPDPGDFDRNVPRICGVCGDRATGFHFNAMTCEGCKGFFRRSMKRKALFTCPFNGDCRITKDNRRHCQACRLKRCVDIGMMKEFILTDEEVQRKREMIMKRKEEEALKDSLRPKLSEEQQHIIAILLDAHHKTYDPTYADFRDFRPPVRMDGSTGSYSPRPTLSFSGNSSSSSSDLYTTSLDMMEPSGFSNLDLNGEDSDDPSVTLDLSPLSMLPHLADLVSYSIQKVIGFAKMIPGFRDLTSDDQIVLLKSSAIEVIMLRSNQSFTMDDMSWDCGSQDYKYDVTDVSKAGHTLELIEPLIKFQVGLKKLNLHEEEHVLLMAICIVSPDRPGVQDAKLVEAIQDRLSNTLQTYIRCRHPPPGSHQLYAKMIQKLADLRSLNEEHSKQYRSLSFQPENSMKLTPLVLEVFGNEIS
Experimental: Full-length recombinant rat receptor was expressed in E. coli BL21(DE3) Codon Plus RIL cells and purified to homogeneity using two different column chromatography systems. The first system was a nickel affinity resin that utilizes the C-terminal histidine tag on this protein. The protein that was eluted from this resin was further purified using ion exchange chromatography (S-Sepharose Fast Flow). Aliquots of the purified protein were quick frozen in liquid nitrogen and stored at −80° C. until use. For use in binding assays, the protein was diluted in TEDK50 (50 mM Tris, 1.5 mM EDTA, pH 7.4, 5 mM DTT, 150 mM KCl) with 0.1% Chaps detergent. The receptor protein and ligand concentration was optimized such that no more than 20% of the added radiolabeled ligand was bound to the receptor.
Unlabeled ligands were dissolved in ethanol and the concentrations determined using UV spectrophotometry (1,25(OH)2D3: molar extinction coefficient=18,200 and λmax=265 nm; Analogs: molar extinction coefficient=42,000 and λmax=252 nm). Radiolabeled ligand (^3H-1,25(OH)2D3, ˜159 Ci/mmole) was added in ethanol at a final concentration of 1 nM.
Radiolabeled and unlabeled ligands were added to 100 mcl of the diluted protein at a final ethanol concentration of ≦10%, mixed and incubated overnight on ice to reach binding equilibrium. The following day, 100 mcl of hydroxylapatite slurry (50%) was added to each tube and mixed at 10-minute intervals for 30 minutes. The hydroxylapaptite was collected by centrifugation and then washed three times with Tris-EDTA buffer (50 mM Tris, 1.5 mM EDTA, pH 7.4) containing 0.5% Titron X-100. After the final wash, the pellets were transferred to scintillation vials containing 4 ml of Biosafe II scintillation cocktail, mixed and placed in a scintillation counter. Total binding was determined from the tubes containing only radiolabeled ligand.

[3] = test system: 3T3-L1 cells; test: Inhibition of 3T3-L1 differentiation into mature adipocytes (Oil-Red-O staining); assay type: cell-based, murine; details: for inhibition of differentiation of 3T3-L1 cells into mature adipocytes (Oil-Red-O staining): result in words, MDI-treated cells, staining at day 10; for inhibition of differentiation of MDI-treated 3T3-L1 cells (oil-red-O staining): tested at 1×10^−8.5 M
Experimental: Various 19-nor vitamin D analogs were or are tested and found to inhibit the differentiation of preadipocytes into mature adipocytes, to reduce body fat, to inhibit an increase in PPARγ, C/EBPα, and/or SCD-1 gene transcription and to be useful in treating and preventing obesity both in vivo and in vitro. The undifferentiated preadipocyte 3T3-L1 subline, a derivative of the original mouse fibroblast cell line, is one of the most accepted models for investigating the adipogenesis process and was used for the analysis. Two days after reaching confluence, 3T3-L1 cells can be induced to differentiate into adipocytes (see Mackall, J. C. et al. J. Biol. Chem., 251(20), 6462-6464 (1976)) with the addition of a cAMP phosphodiesterase inhibitor, dexamethasone (a glucocortoid), and insulin. […] The induction of PPARγ and C/EBPα is required for adipocyte differentiation. […] SCD-1 is an enzyme found in adipocytes that converts saturated fatty acids (C16 and C18) to their monounsaturated forms (C16:1 and C18:1). The deposition of triglyceride can also be detected as early as 3 days, and by the 7th to 14th days post-confluence, greater than 80% of the cells in the monolayer stain positively with Oil-red-O.

[4] = Intestinal calcium transport (everted gut sac); assay type: in vivo; details: result in words, vitamin D deficient rat model, compared to 1α,25(OH)2D3
Experimental: (§1) Male, weanling Sprague-Dawley rats were placed on Diet 11 (0.47% Ca) diet+AEK for one week followed by Diet 11 (0.02% Ca)+AEK for 3 weeks. The rats were then switched to a diet containing 0.47% Ca for one week followed by two weeks on a diet containing 0.02% Ca. Dose administration began during the last week on 0.02% calcium diet. Four consecutive ip doses were given approximately 24 hours apart. Twenty-four hours after the last dose, blood was collected from the severed neck and the concentration of serum calcium determined as a measure of bone calcium mobilization. The first 10 cm of the intestine was also collected for intestinal calcium transport analysis using the everted gut sac method.

[5] = test system: Human promyelocytic leukemia (HL60) cells; test: HL-60 differentiation (nitro blue tetrazolium reduction); assay type: cell-based; details: for cells induced to differentiate in the NBT assay: concentration 1×10^−7 M; for differentiation of HL-60 cells, compared to 1α,25(OH)2D3: result in words
Experimental: The study drugs were dissolved in ethanol and the concentrations determined using UV spectrophotometry. Serial dilutions were prepared so that a range of drug concentrations could be tested without changing the final concentration of ethanol (≦0.2%) present in the cell cultures.
Human promyelocytic leukemia (HL60) cells were grown in RPMI-1640 medium containing 10% fetal bovine serum. The cells were incubated at 37° C. in the presence of 5% CO2.
HL60 cells were plated at 1.2×10^5 cells/ml. Eighteen hours after plating, cells in duplicate were treated with drug. Four days later, the cells were harvested and a nitro blue tetrazolium reduction assay was performed (Collins et al., 1979; J. Exp. Med. 149:969-974). The percentage of differentiated cells was determined by counting a total of 200 cells and recording the number that contained intracellular black-blue formazan deposits. Verification of differentiation to monocytic cells was determined by measuring phagocytic activity (data not shown).

[6] = Bone calcium mobilization (serum calcium on low calcium diet); assay type: in vivo, rat; details: result in words; vitamin D deficient rat model, compared to 1α,25(OH)2D3
Experimental: as §1

[7] = test system: 24-hydroxylase (24Ohase) gene promoter in ROS 17/2.8 (bone) cells; test: In vitro transcription assay (luciferase reporter); assay type: cell-based; details: result in words
Experimental: Transcription activity was measured in ROS 17/2.8 (bone) cells that were stably transfected with a 24-hydroxylase (24Ohase) gene promoter upstream of a luciferase reporter gene (Arbour et al., 1998). Cells were given a range of doses. Sixteen hours after dosing the cells were harvested and luciferase activities were measured using a luminometer. RLU=relative luciferase units.

[8] = Hypercalcemia / serum calcium analysis; assay type: in vivo, rat; details: normal vitamin D sufficient rats, very high oral doses

Row | Structure (SMILES) | inhibition of SCD-1 mRNA induction [1] | binding to the vitamin D receptor, compared to 1α,25(OH)2D3 [2] | binding to the vitamin D receptor, compared to 1α,25(OH)2D3 ([2]; listed as AGR) | inhibition of differentiation of 3T3-L1 cells into mature adipocytes (Oil-Red-O staining) [3] | intestinal calcium transport activity [4] | cells induced to differentiate in the NBT assay [5] | differentiation of HL-60 cells, compared to 1α,25(OH)2D3 [5] | bone calcium mobilization activity [6] | transcriptional activity in bone cells, compared to 1α,25(OH)2D3 [7] | inhibition of SCD-1 mRNA induction ([1]; listed as 2MP) | inhibition of SCD1 mRNA induction [1] | inhibition of differentiation of 3T3-L1 cells into mature adipocytes (Oil-Red-O staining) ([3]; listed as 2MP) | inhibition of differentiation of MDI-treated 3T3-L1 cells (oil-red-O staining) [3] | increase in serum calcium [8] | inhibition of SCD-1 mRNA induction ([1]; listed as OM) | binding to the vitamin D receptor, compared to 1α,25(OH)2D3 ([2]; listed as OM) | inhibition of differentiation of 3T3-L1 cells into mature adipocytes (Oil-Red-O staining) ([3]; listed as OM) | intestinal calcium transport activity ([4]; listed as (20S)-OM) | intestinal calcium transport activity ([4]; listed as OM) | fold more active than the native hormone 1α,25-(OH)2D3 in inhibition of adipocyte differentiation ([3]; Oil-Red-O staining)
1 | CC(CCCC(C)(C)O)C1CCC2C(=CC=C3CC(O)C(=CCCO)C(O)C3)CCCC21C (stereo not drawn) [1AGR] | nearly equipotent; also recorded: active | very active | less than five times less potent | nearly equipotent; also recorded: so much greater; also recorded: active | relatively high intestinal calcium transport activity; also recorded: active | same degree of differentiation | as potent as | significant ability to mobilize calcium from bone; also recorded: active | significant transcriptional activity | – | – | – | – | – | – | – | – | – | – | –
2 | C=C1[C@H](O)CC(=C/C=C2\CCC[C@]3(C)[C@@H](C(C)C)CC[C@@H]23)C[C@H]1O [2-MP] | nearly as potent as the native hormone | as or nearly effective as calcitriol | – | nearly as potent as the native hormone | little, if any, activity | – | – | little, if any, activity | – | still active | active | still active | active | without producing an increase in serum calcium | – | – | – | – | – | –
3 | C=C1[C@H](O)CC(=C/C=C2\CCC[C@]3(C)C(=C(C)C)CC[C@@H]23)C[C@H]1O [VIT-I] | – | bound equally well; also recorded: as well as the native hormone | – | has activity | very little activity; also recorded: less activity | – | almost as potent | very little bone calcium mobilization activity | about the same transcriptional activity | – | active | – | active | – | – | – | – | – | – | –
4 | C=C1[C@H](O)CC(=C/C=C2\CCC[C@]3(C)[C@@H]([C@@H](C)CCCC)CC[C@@H]23)C[C@H]1O [(20S)OM] | still possess activity | as or nearly effective as calcitriol | – | still possess activity | – | – | almost as potent | very little bone calcium mobilization activity | about the same transcriptional activity | – | – | – | – | – | increased slightly | bound equally well | increased slightly | less activity | very little activity | –
5 | COCOCCC=C1C(O)CC(=CC=C2CCCC3(C)C2CCC3C(C)CCCC(C)(C)O)CC1O (stereo not drawn) [F-Wit] | active | very active; also recorded: less than five times less potent | – | also active | relatively high intestinal calcium transport activity; also recorded: active | same degree of differentiation | as potent as | significant ability to mobilize calcium from bone; also recorded: active | significant transcriptional activity | – | – | – | – | – | – | – | – | – | – | –
6 | C=C1[C@H](O)CC(=C/C=C2\CCC[C@@H]3[C@@H]([C@@H](C)CCCC(C)(C)O)CC[C@@H]23)C[C@H]1O [VD-03] | active | very active; also recorded: as well as the native hormone | – | active | about as active as; also recorded: approximately the same activity | – | high potency | relatively low ability | higher transcriptional activity | – | – | – | – | – | – | – | – | – | – | approximately 10 fold
